Measurements from paper PMC4980245 (Environmental and molecular mutagenesis, 2016).

Tests used:
[1] = Precipitation/solubility limit of the top test concentration; settings: for top non-precipitating conc.: precipitation in 100× stock solution or upon addition to culture medium
[2] = tested on: γH2AX; experiment: MultiFlow DNA Damage Kit flow cytometry, γH2AX in TK6 cells with rat liver S9; format: cell-based; settings: 4 hr exposure with 2% rat liver S9
[3] = tested on: TK6 cells; experiment: MultiFlow flow cytometry, polyploidy; format: cell-based; settings: TK6 cells with rat liver S9
[4] = tested on: Phospho-Histone H3; experiment: MultiFlow DNA Damage Kit flow cytometry, phospho-histone H3; format: cell-based; settings: TK6 cells with rat liver S9; effect particularly evident at 24 hrs for PhIP
[5] = tested on: p53; format: cell-based; settings: 24 hr time point; TK6 cells, 4 hr exposure with 2% rat liver S9
[6] = tested on: HepG2 cells; settings: cited from earlier work
[7] = tested on: male rat kidney; settings: due to α2μ-globulin nephropathy; ref Kirkland et al., 2015; cited from earlier work
[8] = tested on: TK6 cells; experiment: Cytotoxicity by relative nuclei counts; format: cell-based; settings: TK6 cells with rat liver S9

CC(=O)Nc1ccc2c(c1)Cc1ccccc1-2 [2-Acetylaminofluorene]
top non-precipitating conc. [1]: 250 µM

Nc1ccc2cc3ccccc3cc2c1 [2-Aminoanthracene]
top non-precipitating conc. [1]: 500 µM

O=[N+]([O-])c1ccc2c(c1)Cc1ccccc1-2 [2-Nitrofluorene]
γH2AX-associated fluorescence response ([2]; 4 hr time point): robust responses | γH2AX-associated fluorescence response ([2]; 24 hr time point): considerably reduced

Cn1c(N)nc2ncc(-c3ccccc3)cc21 [2-amino-1-methyl-6-phenylimidazo [4,5-b]pyridine]
polyploid cells [3]: not induced | proportion of mitotic (p-H3 positive) cells [4]: concentration-dependent reductions | p53 response [5]: higher p53 responses at 24 hr relative to the 4 hr time point | γH2AX-associated fluorescence response ([2]; 4 hr time point): concentration-related increases | γH2AX-associated fluorescence response ([2]; 24 hr time point): concentration-related increases | top non-precipitating conc. [1]: 250 µM

Cc1cc2ncccc2c2nc(N)n(C)c12 [3,4-Dimethylimidazo[4,5-f]quinolin-2-amine]
induction of MN in HepG2 cells [6]: weak inducer

c1ccc2c(c1)cc1ccc3cccc4ccc2c1c34 [Benzo[a]pyrene]
top non-precipitating conc. [1]: 250 µM

C=C(C)[C@H]1CC=C(C)CC1 [D-Limonene]
tumor finding [7]: male rat kidney tumors

CN(C)P(=O)(N(C)C)N(C)C [Hexamethylphosphoramide]
proportion of mitotic (p-H3 positive) cells [4]: no evidence of cytotoxicity | cytotoxicity (reductions to RNC) [8]: no evidence of cytotoxicity

CCN(CC)N=O [N-Nitrosodiethylamine (DEN), N-Nitrosodiethylamine]
proportion of mitotic (p-H3 positive) cells [4]: no evidence of cytotoxicity | cytotoxicity (reductions to RNC) [8]: no evidence of cytotoxicity

Tunicamycin
top conc. due to solubility [1]: 500 µM
